Results: publication PMC11365428 (The Journal of Biological Chemistry, 2024)
No end group written: not given here.

Columns and labels:
apTKRPR-A = target: T1, apTKRPR-A (Aplysia californica, UniProt A0AAU7SSZ1); test: IP1 accumulation assay, CHO-K1 cells transiently expressing apTKRPR-A; type: cell-based; details: for IP1 response of apTKRPR-A in screening: 10^-5 M compared with 10^-10 M (control), no Gαq cotransfection
T1 sequence (A0AAU7SSZ1 1-398): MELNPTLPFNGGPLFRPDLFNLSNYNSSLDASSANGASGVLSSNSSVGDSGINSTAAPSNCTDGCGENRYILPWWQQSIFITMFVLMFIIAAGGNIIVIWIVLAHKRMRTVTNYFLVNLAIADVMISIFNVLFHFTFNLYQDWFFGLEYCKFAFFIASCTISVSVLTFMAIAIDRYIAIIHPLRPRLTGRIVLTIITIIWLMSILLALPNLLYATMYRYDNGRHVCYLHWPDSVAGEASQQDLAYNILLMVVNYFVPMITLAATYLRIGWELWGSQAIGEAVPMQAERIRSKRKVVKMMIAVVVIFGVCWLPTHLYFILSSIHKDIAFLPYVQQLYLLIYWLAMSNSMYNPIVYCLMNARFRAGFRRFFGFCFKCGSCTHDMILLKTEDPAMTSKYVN
Description: (§1) To express putative Aplysia receptors transiently in CHO-K1 cells, the cDNAs were subcloned into the pcDNA3.1(+) or pcDNA3.1(+)-FLAG (for ELISA experiments only, see “Cell surface expression analysis by ELISA” section) expression vector. On the day before transfection, the CHO-K1 cells were passaged into 60 mm diameter tissue culture–treated dishes, and the transfection experiments were performed when the cells were grown to 70 to 90% confluence. CHO-K1 cells were transfected with the cDNA plasmid constructs using Turbofect Transfection reagent (Thermo Fisher Scientific, R0531), following the manufacturer’s instructions. […] The DNA/TurboFect mixture dropwise was then added to the dish, and the cells were incubated at 37 °C in a humidified incubator containing 5% CO2 overnight.
(§2) On the third day, the activation of the putative receptors was detected by monitoring intracellular IP1 concentration using an IP-One Gq kit (Cisbio, 62IPAPEB) in Tecan Spark. Except for using 0.5x reagent, all other procedures were performed following the manufacturer’s instructions. IP1 accumulation assay measures the accumulation of IP1, which is hydrolyzed from the second messenger, and inositol triphosphate. Inositol triphosphate is generated by the Gαq pathway when a GPCR is activated by an appropriate ligand.

apTKRPR-B = target: T2, apTKRPR-B (Aplysia californica, UniProt A0AAU7STS1); test: IP1 accumulation assay, CHO-K1 cells transiently expressing apTKRPR-B; type: cell-based; details: for IP1 response of apTKRPR-B in screening: 10^-5 M compared with 10^-10 M (control), no Gαq cotransfection
T2 sequence (A0AAU7STS1 1-447): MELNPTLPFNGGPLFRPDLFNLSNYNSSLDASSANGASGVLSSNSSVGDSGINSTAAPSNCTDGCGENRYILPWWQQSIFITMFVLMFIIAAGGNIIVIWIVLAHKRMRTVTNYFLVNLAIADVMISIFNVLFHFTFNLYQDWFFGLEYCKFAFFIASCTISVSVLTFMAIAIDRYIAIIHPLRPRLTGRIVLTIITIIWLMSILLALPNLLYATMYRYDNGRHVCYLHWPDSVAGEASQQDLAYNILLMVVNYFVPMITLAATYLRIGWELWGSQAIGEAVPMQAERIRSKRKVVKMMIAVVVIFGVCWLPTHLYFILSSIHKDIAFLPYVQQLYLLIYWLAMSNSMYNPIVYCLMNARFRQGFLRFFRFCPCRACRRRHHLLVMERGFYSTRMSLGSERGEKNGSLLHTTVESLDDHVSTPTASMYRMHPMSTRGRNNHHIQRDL
Description: as §1, §2

[1] = test system: putative neuropeptide FF receptor (apNPFFR); test: IP1 accumulation assay, CHO-K1 cells transiently expressing putative neuropeptide FF receptor; type: cell-based, Aplysia californica; details: 10^-5 M compared with 10^-10 M (control); n = 3; no Gαq cotransfection
Description: To express putative Aplysia receptors transiently in CHO-K1 cells, the cDNAs were subcloned into the pcDNA3.1(+) or pcDNA3.1(+)-FLAG (for ELISA experiments only, see “Cell surface expression analysis by ELISA” section) expression vector. On the day before transfection, the CHO-K1 cells were passaged into 60 mm diameter tissue culture–treated dishes, and the transfection experiments were performed when the cells were grown to 70 to 90% confluence. CHO-K1 cells were transfected with the cDNA plasmid constructs using Turbofect Transfection reagent (Thermo Fisher Scientific, R0531), following the manufacturer’s instructions. In brief, 4 μg of the putative receptor plasmids [in pcDNA3.1(+) or pcDNA3.1(+)-FLAG] were mixed with 400 μl of Opti-MEM (Gibco, 11058021), followed by the addition of 15 μl of TurboFect Transfection reagent and incubated at room temperature for 15 min. The DNA/TurboFect mixture dropwise was then added to the dish, and the cells were incubated at 37 °C in a humidified incubator containing 5% CO2 overnight.
as §2, with “The next day, transfected cells were trypsinized and reseeded in an opaque white 96-well half-area (Corning, 3688) or 384-well tissue culture–treated plates (Corning, 3570) at a density of 20,000 cells/well in F-12K and 10% FBS and incubated at 37 °C in a humidified incubator containing 5% CO2 overnight. On the” for “On the”

[2] = co-transfected with Gαq (Gα16), 10^-5 M compared with 10^-10 M, n = 3

Substance	IP1 response of apTKRPR-A in screening (apTKRPR-A; n = 3)	EC50 (apTKRPR-A; log10 of EC50 in M, negative, IP1 accumulation, CHO-K1, mean ± SD of at least three independent experiments (apTKRP-1 n = 9; apTKRP-2a n = 11; apTKRP-2b n = 19; analogs, apTKRP-2b-OH n = 4), read-out: apTKRPR-A log[EC50] (converted)) [nM]	IP1 response of apTKRPR-B in screening (apTKRPR-B; n = 3)	EC50 (apTKRPR-B; log10 of EC50 in M, negative, IP1 accumulation, CHO-K1, mean ± SD of at least three independent experiments (apTKRP-1 n = 9; apTKRP-2a n = 11; apTKRP-2b n = 19; analogs, apTKRP-2b-OH n = 4), read-out: apTKRPR-B log[EC50] (converted)) [nM]	IP1 response of putative apNPFFR in screening [1]	IP1 response of apTKRPR-A in screening with Gαq cotransfection (apTKRPR-A; [2])	IP1 response of apTKRPR-B in screening with Gαq cotransfection (apTKRPR-B; [2])
H-QPHLGFHGSR-NH2 [apTKRP-2a]	responded	107	responded	12.9	did not respond		
FMPGLESLLLAKYYQDAKW [apTKRPG-DP]	did not activate		did not activate		did not respond	did not activate	did not activate
